Measured values published in paper PMC11859184, “Synthesis and Evaluation of ^68Ga- and ^177Lu-Labeled [diF-Pro^14]Bombesin(6−14) Analogs for Detection and Radioligand Therapy of Gastrin-Releasing Peptide Receptor-Expressing Cancer” (Pharmaceuticals, 2025).
Like-named read-outs stand apart in the source and are kept apart here.

Assay: Ex vivo biodistribution of 68Ga-labeled tracers in PC-3 tumor-bearing mice
Settings: mouse, 1 h pi; for tissue to tissue ratio at 1 h: male, NOD.Cg-Rag1^tm1Mom Il2rg^tm1Wjl/SzJ (NRG), iv, total radioactivity; for tissue uptake at 1 h: intravenous
Method: PET/CT imaging and biodistribution studies were conducted using male NOD.Cg-Rag1^tm1Mom Il2rg^tm1Wjl/SzJ (NRG) mice following previously published procedures. The studies were carried out in compliance with the guidelines established by the Canadian Council on Animal Care and approved by Animal Ethics Committee of the University of British Columbia (protocol number A20-0113, approved on 30 September 2022). The mice were anaesthetized and subcutaneously implanted with 5 × 10^6 PC-3 cells (100 µL; 1:1 PBS/Matrigel) behind the left shoulder. PET/CT imaging and biodistribution studies were performed once the tumors reached a diameter of 5–8 mm, typically after approximately 4 weeks of growth.
For ex vivo biodistribution studies, the mice were injected with the ^68Ga-labeled tracer (2–4 MBq) via a lateral caudal tail vein. For blocking [^68Ga]Ga-LW02060, the mice were co-injected with 100 μg of [D-Phe^6,Leu-NHEt^13,des-Met^14]Bombesin(6–14). For blocking [^68Ga]Ga-LW02080, the mice were co-injected with 100 μg of its nonradioactive standard Ga-LW02080. At 1 h pi, the mice were euthanized by CO2 inhalation. Blood and organs/tissues of interest were collected, weighed, and counted using a gamma counter.

[1] = tumor/blood, blocked (100 µg blocking agent co-injected), read-out: Tumor/blood uptake ratio
[2] = tumor/blood, n = 4, read-out: Tumor/blood uptake ratio
[3] = tumor/bone, blocked (100 µg blocking agent co-injected), read-out: Tumor/bone uptake ratio
[4] = tumor/bone, n = 4, read-out: Tumor/bone uptake ratio
[5] = tumor/kidney, blocked (100 µg blocking agent co-injected), read-out: Tumor/kidney uptake ratio
[6] = tumor/kidney, n = 4, read-out: Tumor/kidney uptake ratio
[7] = tumor/muscle, blocked (100 µg blocking agent co-injected), read-out: Tumor/muscle uptake ratio
[8] = tumor/muscle, n = 4, read-out: Tumor/muscle uptake ratio
[9] = tumor/pancreas, blocked (100 µg blocking agent co-injected), read-out: Tumor/pancreas uptake ratio
[10] = tumor/pancreas, n = 4, read-out: Tumor/pancreas uptake ratio
[11] = PC-3 tumor, 100 ug, blocked (100 µg blocking agent co-injected), read-out: PC-3 tumor uptake
[12] = PC-3 tumor, n = 4, read-out: PC-3 tumor uptake
[13] = adrenal glands, 100 ug, blocked (100 µg blocking agent co-injected), read-out: Adrenal glands uptake
[14] = adrenal glands, n = 4, read-out: Adrenal glands uptake
[15] = blood, 100 ug, blocked (100 µg blocking agent co-injected), read-out: Blood uptake
[16] = blood, n = 4, read-out: Blood uptake
[17] = bone, 100 ug, blocked (100 µg blocking agent co-injected), read-out: Bone uptake
[18] = bone, n = 4, read-out: Bone uptake
[19] = brain, 100 ug, blocked (100 µg blocking agent co-injected), read-out: Brain uptake
[20] = brain, n = 4, read-out: Brain uptake
[21] = fat, 100 ug, blocked (100 µg blocking agent co-injected), read-out: Fat uptake
[22] = fat, n = 4, read-out: Fat uptake
[23] = heart, 100 ug, blocked (100 µg blocking agent co-injected), read-out: Heart uptake
[24] = heart, n = 4, read-out: Heart uptake
[25] = kidneys, 100 ug, blocked (100 µg blocking agent co-injected), read-out: Kidneys uptake
[26] = kidneys, n = 4, read-out: Kidneys uptake
[27] = large intestine, 100 ug, blocked (100 µg blocking agent co-injected), read-out: Large intestine uptake
[28] = large intestine, n = 4, read-out: Large intestine uptake
[29] = liver, 100 ug, blocked (100 µg blocking agent co-injected), read-out: Liver uptake
[30] = liver, n = 4, read-out: Liver uptake
[31] = lungs, 100 ug, blocked (100 µg blocking agent co-injected), read-out: Lungs uptake
[32] = lungs, n = 4, read-out: Lungs uptake
[33] = muscle, 100 ug, blocked (100 µg blocking agent co-injected), read-out: Muscle uptake
[34] = muscle, n = 4, read-out: Muscle uptake
[35] = pancreas, 100 ug, blocked (100 µg blocking agent co-injected), read-out: Pancreas uptake
[36] = pancreas, n = 4, read-out: Pancreas uptake
[37] = small intestine, 100 ug, blocked (100 µg blocking agent co-injected), read-out: Small intestine uptake
[38] = small intestine, n = 4, read-out: Small intestine uptake
[39] = spleen, 100 ug, blocked (100 µg blocking agent co-injected), read-out: Spleen uptake
[40] = spleen, n = 4, read-out: Spleen uptake
[41] = stomach, 100 ug, blocked (100 µg blocking agent co-injected), read-out: Stomach uptake
[42] = stomach, n = 4, read-out: Stomach uptake
[43] = testes, 100 ug, blocked (100 µg blocking agent co-injected), read-out: Testes uptake
[44] = testes, n = 4, read-out: Testes uptake

CC(C)C[C@H](NC(=O)[C@H](Cc1cnc[nH]1)N(C)C(=O)CNC(=O)[C@@H](NC(=O)[C@H](C)NC(=O)[C@H](Cc1c[nH]c2ccccc12)NC(=O)[C@H](CCC(N)=O)NC(=O)[C@@H](Cc1ccccc1)NC(=O)CN1CCC(NC(=O)CN2CCN(CC(=O)O)CCN(CC(=O)O)CCN(CC(=O)O)CC2)CC1)C(C)(C)C)C(=O)N1CC(F)(F)C[C@H]1C(N)=O [[^68Ga]Ga-LW02060, metal not drawn] gave a tissue to tissue ratio at 1 h [1] of 3.72 ± 0.74, a tissue to tissue ratio at 1 h [2] of 29.1 ± 3.62 and a tissue to tissue ratio at 1 h [3] of 22.3 ± 8.24. It also gave a tissue to tissue ratio at 1 h [4] of 179 ± 46.9, a tissue to tissue ratio at 1 h [5] of 0.54 ± 0.03 and a tissue to tissue ratio at 1 h [6] of 4.86 ± 0.76. It also gave a tissue to tissue ratio at 1 h [7] of 17.7 ± 3.85, a tissue to tissue ratio at 1 h [8] of 141 ± 19 and a tissue to tissue ratio at 1 h [9] of 2.87 ± 0.84. For the same compound, the tissue to tissue ratio at 1 h [10] was 5.52 ± 0.78, the tissue uptake at 1 h [11] was 6.11 ± 0.42 %ID/g and the tissue uptake at 1 h [12] was 16.8 ± 2.7 %ID/g. It also gave a tissue uptake at 1 h [13] of 0.67 ± 0.03 %ID/g, a tissue uptake at 1 h [14] of 0.66 ± 0.16 %ID/g and a tissue uptake at 1 h [15] of 1.71 ± 0.44 %ID/g. The tissue uptake at 1 h [16] was 0.54 ± 0.03 %ID/g, the tissue uptake at 1 h [17] was 0.29 ± 0.07 %ID/g and the tissue uptake at 1 h [18] was 0.1 ± 0.04 %ID/g. The tissue uptake at 1 h [19] was 0.05 ± 0.01 %ID/g, the tissue uptake at 1 h [20] was 0.02 ± 0.01 %ID/g and the tissue uptake at 1 h [21] was 0.27 ± 0.1 %ID/g. The tissue uptake at 1 h [22] was 0.05 ± 0.02 %ID/g, the tissue uptake at 1 h [23] was 0.52 ± 0.14 %ID/g and the tissue uptake at 1 h [24] was 0.2 ± 0.05 %ID/g. It also gave a tissue uptake at 1 h [25] of 11.3 ± 0.97 %ID/g, a tissue uptake at 1 h [26] of 3.58 ± 1.14 %ID/g and a tissue uptake at 1 h [27] of 0.54 ± 0.13 %ID/g. It also gave a tissue uptake at 1 h [28] of 0.61 ± 0.1 %ID/g, a tissue uptake at 1 h [29] of 1.11 ± 0.43 %ID/g and a tissue uptake at 1 h [30] of 0.37 ± 0.08 %ID/g. It also gave a tissue uptake at 1 h [31] of 1.52 ± 0.39 %ID/g, a tissue uptake at 1 h [32] of 0.61 ± 0.15 %ID/g and a tissue uptake at 1 h [33] of 0.35 ± 0.08 %ID/g. It also gave a tissue uptake at 1 h [34] of 0.12 ± 0.03 %ID/g, a tissue uptake at 1 h [35] of 2.25 ± 0.59 %ID/g and a tissue uptake at 1 h [36] of 3.12 ± 0.89 %ID/g. It also gave a tissue uptake at 1 h [37] of 0.72 ± 0.02 %ID/g, a tissue uptake at 1 h [38] of 0.96 ± 0.2 %ID/g and a tissue uptake at 1 h [39] of 0.53 ± 0.15 %ID/g. The tissue uptake at 1 h [40] was 0.24 ± 0.1 %ID/g, the tissue uptake at 1 h [41] was 0.38 ± 0.06 %ID/g and the tissue uptake at 1 h [42] was 0.77 ± 0.29 %ID/g. It also gave a tissue uptake at 1 h [43] of 0.76 ± 0.29 %ID/g and a tissue uptake at 1 h [44] of 0.2 ± 0.06 %ID/g.
CC(C)C[C@@H](CN1CC(F)(F)C[C@H]1C(N)=O)NC(=O)[C@H](Cc1c[nH]cn1)NC(=O)CN(C)C(=O)[C@@H](NC(=O)[C@H](C)NC(=O)[C@H](Cc1c[nH]c2ccccc12)NC(=O)[C@H](CCC(N)=O)NC(=O)[C@@H](Cc1ccccc1)NC(=O)CN1CCC(NC(=O)CN2CCN(CC(=O)O)CCN(CC(=O)O)CCN(CC(=O)O)CC2)CC1)C(C)C [[^68Ga]Ga-LW02080, metal not drawn] showed a tissue to tissue ratio at 1 h [1] of 0.87 ± 0.15, a tissue to tissue ratio at 1 h [2] of 22.7 ± 4.13 and a tissue to tissue ratio at 1 h [3] of 5.52 ± 0.68. The tissue to tissue ratio at 1 h [4] was 69.8 ± 13.7, the tissue to tissue ratio at 1 h [5] was 0.14 ± 0.03 and the tissue to tissue ratio at 1 h [6] was 3.18 ± 0.75. The tissue to tissue ratio at 1 h [7] was 3.61 ± 0.14, the tissue to tissue ratio at 1 h [8] was 117 ± 18.6 and the tissue to tissue ratio at 1 h [9] was 3.47 ± 0.64. It also gave a tissue to tissue ratio at 1 h [10] of 18.4 ± 2.86, a tissue uptake at 1 h [11] of 1.71 ± 0.39 %ID/g and a tissue uptake at 1 h [12] of 7.36 ± 1.33 %ID/g. The tissue uptake at 1 h [13] was 0.69 ± 0.05 %ID/g, the tissue uptake at 1 h [14] was 0.39 %ID/g and the tissue uptake at 1 h [15] was 2.02 ± 0.7 %ID/g. For the same compound, the tissue uptake at 1 h [16] was 0.33 ± 0.08 %ID/g, the tissue uptake at 1 h [17] was 0.31 ± 0.06 %ID/g and the tissue uptake at 1 h [18] was 0.11 ± 0.02 %ID/g. The tissue uptake at 1 h [19] was 0.06 ± 0.03 %ID/g, the tissue uptake at 1 h [20] was 0.01 %ID/g and the tissue uptake at 1 h [21] was 0.25 ± 0.04 %ID/g. For the same compound, the tissue uptake at 1 h [22] was 0.03 ± 0.01 %ID/g, the tissue uptake at 1 h [23] was 0.66 ± 0.18 %ID/g and the tissue uptake at 1 h [24] was 0.11 ± 0.03 %ID/g. It also gave a tissue uptake at 1 h [25] of 11.2 ± 1.02 %ID/g, a tissue uptake at 1 h [26] of 2.42 ± 0.81 %ID/g and a tissue uptake at 1 h [27] of 0.33 ± 0.1 %ID/g. It also gave a tissue uptake at 1 h [28] of 0.3 ± 0.09 %ID/g, a tissue uptake at 1 h [29] of 1.05 ± 0.39 %ID/g and a tissue uptake at 1 h [30] of 0.31 ± 0.07 %ID/g. The tissue uptake at 1 h [31] was 1.52 ± 0.44 %ID/g, the tissue uptake at 1 h [32] was 0.28 ± 0.05 %ID/g and the tissue uptake at 1 h [33] was 0.53 ± 0.06 %ID/g. For the same compound, the tissue uptake at 1 h [34] was 0.06 ± 0.02 %ID/g, the tissue uptake at 1 h [35] was 0.51 ± 0.18 %ID/g and the tissue uptake at 1 h [36] was 0.38 ± 0.04 %ID/g. It also gave a tissue uptake at 1 h [37] of 1.04 ± 0.48 %ID/g, a tissue uptake at 1 h [38] of 0.24 ± 0.07 %ID/g and a tissue uptake at 1 h [39] of 0.56 ± 0.17 %ID/g. It also gave a tissue uptake at 1 h [40] of 0.18 ± 0.05 %ID/g, a tissue uptake at 1 h [41] of 0.38 ± 0.2 %ID/g and a tissue uptake at 1 h [42] of 0.08 ± 0.04 %ID/g. For the same compound, the tissue uptake at 1 h [43] was 0.63 ± 0.2 %ID/g and the tissue uptake at 1 h [44] was 0.12 ± 0.03 %ID/g.
